Results taken from PMC6038709, “The Drosophila melanogaster Na^+/Ca^2+ Exchanger CALX Controls the Ca^2+ Level in Olfactory Sensory Neurons at Rest and After Odorant Receptor Activation” (Frontiers in Cellular Neuroscience, 2018).

Biological target: T1, Orco (Or83b) (Drosophila melanogaster, UniProt Q9VNB5)
T1 construct: full-length Orco in pcDNA3.1(-), expressed alone (no OrX) in HEK293 cells
T1 sequence (Q9VNB5 1-486): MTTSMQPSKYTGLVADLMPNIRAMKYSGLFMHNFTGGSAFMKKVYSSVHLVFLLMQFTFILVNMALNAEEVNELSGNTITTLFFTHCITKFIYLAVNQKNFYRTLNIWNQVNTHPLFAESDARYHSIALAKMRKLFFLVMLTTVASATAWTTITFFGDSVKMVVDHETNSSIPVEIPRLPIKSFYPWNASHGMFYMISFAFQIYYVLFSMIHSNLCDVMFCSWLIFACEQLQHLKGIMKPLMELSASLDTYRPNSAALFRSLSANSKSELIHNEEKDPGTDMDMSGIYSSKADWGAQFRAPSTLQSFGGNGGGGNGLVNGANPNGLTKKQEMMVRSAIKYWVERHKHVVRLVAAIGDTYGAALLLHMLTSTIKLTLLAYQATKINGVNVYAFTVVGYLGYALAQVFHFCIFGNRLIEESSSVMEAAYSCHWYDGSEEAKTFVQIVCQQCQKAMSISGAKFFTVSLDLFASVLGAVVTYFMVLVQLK
Assay: fura-2 calcium imaging, HEK293 cells
Type: cell-based
Settings: block of VUAA1-evoked (100 or 50 uM) calcium rise; KB-R7943 100 uM (Methods); pH 7.4; Orco without OrX

N=C(N)SCCc1ccc(OCc2ccc([N+](=O)[O-])cc2)cc1 [KB-R7943, 2-[4-[(4-nitrophenyl)methoxy]phenyl]ethyl ester carbamimidothiotic acid, monomethanesulfonate]
fura-2 calcium imaging, HEK293 cells: we confirmed that KB-R7943 is blocking Orco
